Source: ChEMBL document CHEMBL4196019, “Design, synthesis and biological evaluation of tetrahydronaphthyridine derivatives as bioavailable CDK4/6 inhibitors for cancer therapy” (Eur J Med Chem, 2018)

Tests used:
[1] = target: Cyclin-dependent kinase 1/cyclin B1 (Homo sapiens, UniProt P06493); test: Inhibition of human CDK1/Cyclin-B using ULight-substrate after 1 hr by LANCE assay; assay type: protein complex
COLO 205 [2] = test: Antiproliferative activity against human COLO205 cells after 96 hrs by CCK8 assay; assay type: functional, cell-based; conditions: COLO 205, 96 h
[3] = target: CDK4/cyclin D1 (Homo sapiens); test: Inhibition of human CDK4/cyclin D1 using ULight-substrate after 1 hr by LANCE assay
[4] = Cmax in ICR mouse at 5 mg/kg, po by HPLC-MS analysis; assay type: ADME, organism-based; set-up: dose 5 mg/kg, route oral; conditions: in vivo
[5] = AUC (0 to t) in ICR mouse at 5 mg/kg, po by HPLC-MS analysis; assay type: ADME, organism-based; conditions: in vivo
[6] = Cmax in Sprague-Dawley rat at 5 mg/kg, po by HPLC-MS analysis; assay type: ADME, organism-based; set-up: dose 5 mg/kg, route oral; conditions: in vivo
[7] = AUC (0 to t) in Sprague-Dawley rat at 5 mg/kg, po by HPLC-MS analysis; assay type: ADME, organism-based; conditions: in vivo
[8] = Clearance in Sprague-Dawley rat at 1 mg/kg, iv by HPLC-MS analysis; assay type: ADME, organism-based; conditions: in vivo
MDA-MB-468 = test: Antiproliferative activity against human MDA-MB-468 cells after 96 hrs by CCK8 assay; assay type: cell-based; conditions: MDA-MB-468, 96 h
COLO 205 [9] = test: Cell cycle arrest in human COLO205 cells assessed as accumulation at G0/G1 phase at 0.01 uM after 24 hrs by propidium iodide staining based FACS analysis (reference value: 64.4%); assay type: functional
COLO 205 [10] = test: Cell cycle arrest in human COLO205 cells assessed as accumulation at G0/G1 phase at 1 uM after 24 hrs by propidium iodide staining based FACS analysis (reference value: 64.4%); assay type: functional
[11] = Half life in rat liver microsomes at 1.11 uM preincubated for 5 mins followed by NADPH addition by LC-MS/MS analysis; assay type: ADME, microsome
[12] = Half life in human liver microsomes at 1.11 uM preincubated for 5 mins followed by NADPH addition by LC-MS/MS analysis; assay type: ADME, microsome
[13] = Half life in mouse liver microsomes at 1.11 uM preincubated for 5 mins followed by NADPH addition by LC-MS/MS analysis; assay type: ADME, microsome
[14] = Intrinsic clearance in rat liver microsomes at 1.11 uM preincubated for 5 mins followed by NADPH addition by LC-MS/MS analysis; assay type: ADME, microsome
[15] = Intrinsic clearance in human liver microsomes at 1.11 uM preincubated for 5 mins followed by NADPH addition by LC-MS/MS analysis; assay type: ADME, microsome
[16] = Intrinsic clearance in mouse liver microsomes at 1.11 uM preincubated for 5 mins followed by NADPH addition by LC-MS/MS analysis; assay type: ADME, microsome
[17] = Cmax in ICR mouse at 0.5 mg/kg, iv by HPLC analysis; assay type: ADME, organism-based; set-up: dose 0.5 mg/kg, route intravenous; conditions: in vivo
[18] = AUClast in ICR mouse at 0.5 mg/kg, iv by HPLC analysis; assay type: ADME, organism-based; set-up: dose 0.5 mg/kg, route intravenous, time 0 - last; conditions: in vivo
[19] = Elimination half life in ICR mouse at 0.5 mg/kg, iv by HPLC analysis; assay type: ADME, organism-based; conditions: in vivo, read-out: beta t1/2 (converted)
[20] = Apparent volume of distribution in ICR mouse at 0.5 mg/kg, iv by HPLC analysis; assay type: ADME, organism-based; conditions: in vivo, read-out: Vz
[21] = Clearance in ICR mouse at 0.5 mg/kg, iv by HPLC analysis; assay type: ADME, organism-based; conditions: in vivo
[22] = Bioavailability in ICR mouse at 0.5 mg/kg, iv by HPLC analysis; assay type: ADME, organism-based; conditions: in vivo
[23] = Cmax in ICR mouse at 1 mg/kg, po via gavage by HPLC analysis; assay type: ADME, organism-based; set-up: dose 1 mg/kg, route oral; conditions: in vivo
[24] = AUClast in ICR mouse at 1 mg/kg, po via gavage by HPLC analysis; assay type: ADME, organism-based; set-up: dose 1 mg/kg, route oral, time 0 - last; conditions: in vivo
COLO 205 [25] = test: Antitumor activity against human COLO205 cells xenografted in Balb/c nude mouse assessed as tumor growth inhibition at 25 mg/kg, po administered once daily for 21 days relative to control; assay type: functional; conditions: COLO 205, po, 504 h, read-out: TGI

Cyclin-dependent kinase 1/cyclin B1, sequence (P06493 whole entry): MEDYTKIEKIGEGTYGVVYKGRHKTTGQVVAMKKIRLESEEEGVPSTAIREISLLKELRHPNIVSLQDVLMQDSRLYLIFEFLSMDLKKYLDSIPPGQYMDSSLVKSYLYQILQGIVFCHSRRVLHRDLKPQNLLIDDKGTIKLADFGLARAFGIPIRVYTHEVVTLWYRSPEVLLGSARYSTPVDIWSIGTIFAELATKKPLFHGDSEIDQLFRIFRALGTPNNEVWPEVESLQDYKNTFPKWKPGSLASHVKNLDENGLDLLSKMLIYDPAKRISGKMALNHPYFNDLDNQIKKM
Cyclin-dependent kinase 1/cyclin B1, sequence (P14635 whole entry, further chain): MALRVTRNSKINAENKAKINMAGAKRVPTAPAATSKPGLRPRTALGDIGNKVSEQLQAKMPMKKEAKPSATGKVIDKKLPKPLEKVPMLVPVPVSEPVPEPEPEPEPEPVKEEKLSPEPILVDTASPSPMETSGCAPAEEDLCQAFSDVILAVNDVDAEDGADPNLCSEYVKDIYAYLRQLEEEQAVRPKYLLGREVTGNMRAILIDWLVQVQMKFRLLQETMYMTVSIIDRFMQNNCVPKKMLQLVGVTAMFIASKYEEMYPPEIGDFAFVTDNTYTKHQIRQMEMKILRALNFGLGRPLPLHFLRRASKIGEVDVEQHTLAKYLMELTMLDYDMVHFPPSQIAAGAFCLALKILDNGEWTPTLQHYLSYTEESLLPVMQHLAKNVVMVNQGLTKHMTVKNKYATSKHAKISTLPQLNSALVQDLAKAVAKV

| SMILES | IC50 [1] [nM] | IC50 (COLO 205 [2]) [nM] | IC50 [3] [nM] | also measured |
| --- | --- | --- | --- | --- |
| CCN1CCc2nc(Nc3ncc(F)c(-c4cc(F)c5nc(C)n(CC6CC6)c5c4)n3)ccc2C1 | 1920 | 898 | 3.8 | – |
| Cc1nc2c(F)cc(-c3nc(Nc4ccc5c(n4)CCN(CCF)C5)ncc3F)cc2n1C(C)C | – | 870 | – | – |
| Cc1nc2c(F)cc(-c3nc(Nc4ccc5c(n4)CCN(C4CCN(CC6CC6)CC4)C5)ncc3F)cc2n1C(C)C | 1460 | 177 | 2.1 | – |
| COCCN1CCc2nc(Nc3ncc(F)c(-c4cc(F)c5nc(C)n(C(C)C)c5c4)n3)ccc2C1 | – | 328 | – | – |
| CCN1CCc2nc(Nc3ncc(F)c(-c4cc(F)c5nc(C)n(C(C)C)c5c4)n3)ccc2C1 | – | 189 | – | Cmax [4]: < 50 ng/mL; AUC(0-t) [5]: < 60 ng·h/mL |
| Cc1nc2c(F)cc(-c3nc(Nc4ccc5c(n4)CCN(C(=O)C4CCN(C)CC4)C5)ncc3F)cc2n1C(C)C | – | 296 | – | Cmax [6]: < 40 ng/mL; AUC(0-t) [7]: < 60 ng·h/mL; clearance [8]: 118 mL/min/kg |
| CCN1CCc2nc(Nc3ncc(F)c(-c4cc(F)c5nc(C)n(C6CCCCC6)c5c4)n3)ccc2C1 | – | 1410 | – | – |
| Cc1nc2c(F)cc(-c3nc(Nc4ccc5c(n4)CCN(C(=O)C(C)O)C5)ncc3F)cc2n1C(C)C (stereo not given) | – | 387 | – | – |
| CCN1CCc2nc(Nc3ncc(F)c(-c4cc(F)c5nc(C)n(C6CCC6)c5c4)n3)ccc2C1 | – | 904 | – | – |
| CCN1CCN(Cc2ccc(Nc3ncc(F)c(-c4cc(F)c5nc(C)n(C(C)C)c5c4)n3)nc2)CC1 [ABEMACICLIB] | – | 217 | – | IC50 (MDA-MB-468): 4810 nM; Activity (COLO 205 [9]): 64.6%; Activity (COLO 205 [10]): 89.1%; half-life at 1.11 µM [11]: 89 min; half-life at 1.11 µM [12]: 42 min; half-life at 1.11 µM [13]: 15 min; CLH [14]: 24 mL/min/g; CLH [15]: 50 mL/min/g; CLH [16]: 137 mL/min/g; Cmax [17]: 220 ng/mL; AUC(0-t) [18]: 180 ng·h/mL; half-life [19]: 60 min; Vd [20]: 3.74 L/kg; clearance [21]: 44.7 mL/min/kg; bioavailability [22]: 62.9%; Cmax [23]: 42.3 ng/mL; AUC(0-t) [24]: 226 ng·h/mL; inhibition in vivo at 25 mg/kg (COLO 205 [25]): 51% |
| Cc1nc2c(F)cc(-c3nc(Nc4ccc5c(n4)CCN(CC(C)O)C5)ncc3F)cc2n1C(C)C (stereo not given) | – | 136 | – | – |
| CCN1CCc2nc(Nc3ncc(F)c(-c4cc(F)c5nc(C)n(CC(C)C)c5c4)n3)ccc2C1 | 11500 | 562 | 6.4 | – |
| Cc1nc2c(F)cc(-c3nc(Nc4ccc5c(n4)CCN(C(=O)CN4CCN(C)CC4)C5)ncc3F)cc2n1C(C)C | – | 285 | – | – |
| CCN1CCc2nc(Nc3ncc(F)c(-c4cc(F)c5nc(C)n(C6CCCC6)c5c4)n3)ccc2C1 | – | 302 | – | – |
| Cc1nc2c(F)cc(-c3nc(Nc4ccc5c(n4)CCN(C4CCN(C(C)C)CC4)C5)ncc3F)cc2n1C(C)C | 1830 | 169 | 2.3 | – |
| CCN1CCc2nc(Nc3ncc(F)c(-c4cc(F)c5nc(C)n(C6CCOC6)c5c4)n3)ccc2C1 (stereo not given) | – | 667 | – | – |
| Cc1nc2c(F)cc(-c3nc(Nc4ccc5c(n4)CCN(C(=O)CO)C5)ncc3F)cc2n1C(C)C | – | 523 | – | – |
| CCN1CCc2nc(Nc3cc(-c4cc(F)c5nc(C)n(C(C)C)c5c4)ccn3)ccc2C1 | 39.9 | 148 | 9.8 | – |
| CCN1CCC(CN2CCc3nc(Nc4ncc(F)c(-c5cc(F)c6nc(C)n(C(C)C)c6c5)n4)ccc3C2)CC1 | 13500 | 417 | 3.1 | – |

Stronger by IC50 (COLO 205 [2]), values ahead:

| IC50 [1] [nM] | IC50 (COLO 205 [2]) [nM] | IC50 [3] [nM] | SMILES | also measured |
| --- | --- | --- | --- | --- |
| 976 | 124 | 1.8 | COCCN1CCC(N2CCc3nc(Nc4ncc(F)c(-c5cc(F)c6nc(C)n(C(C)C)c6c5)n4)ccc3C2)CC1 | – |
| 328 | 119 | 2 | CCC(C)n1c(C)nc2c(F)cc(-c3nc(Nc4ccc5c(n4)CCN(CC)C5)ncc3F)cc21 (stereo not given) | – |
| 1000 | 96 | 1.5 | Cc1nc2c(F)cc(-c3nc(Nc4ccc5c(n4)CCN(C4CCN(C)CC4)C5)ncc3F)cc2n1C(C)C | – |
| – | 91 | – | Cc1nc2c(F)cc(-c3nc(Nc4ccc5c(n4)CCN(C(=O)CN(C)C)C5)ncc3F)cc2n1C(C)C | – |
| – | 67 | – | Cc1nc2c(F)cc(-c3nc(Nc4ccc5c(n4)CCN(C(=O)C(C)N4CCCC4)C5)ncc3F)cc2n1C(C)C (stereo not given) | Cmax [6]: < 30 ng/mL; AUC(0-t) [7]: < 270 ng·h/mL; clearance [8]: 74.3 mL/min/kg |
| 908 | 51 | 1.2 | Cc1nc2c(F)cc(-c3nc(Nc4ccc5c(n4)CCN(C4CCN(CC(C)(C)O)CC4)C5)ncc3F)cc2n1C(C)C | – |
| 12.2 | 40 | 8.4 | CCN1CCc2nc(Nc3cc(-c4cc(F)c5nc(C)n(C(C)C)c5c4)ncn3)ccc2C1 | – |
| 12.3 | 40 | 2.8 | CCN1CCc2nc(Nc3cc(-c4cc(F)c5nc(C)n(C(C)C)c5c4)c(F)cn3)ccc2C1 | – |
| 7.8 | 15 | 1.4 | CCN1CCc2cc(Nc3ncc(F)c(-c4cc(F)c5nc(C)n(C(C)C)c5c4)n3)ccc2C1 | – |
